Data: patent US9821035B2, “Preparation for preventing or treating type I diabetes” (REGIMMUNE CORPORATION, priority 2012, dated 2017)

Assays:
Assay type in all cases: cell-based
IL-2 = test: Cytokine production in culture supernatant of spleen cells from drug-administered NOD mice: IL-2; conditions: spleen cells of dosed NOD mice, cultured four days
Description: (§1) 1-5. Analysis of Insulin-B-Peptide-Specific Cell Proliferation of Treg Cells and Measurement of Cytokine Production To NOD mice (NOD/ShiJcl, CLEA Japan Inc., Tokyo, Japan), which are animals representing a spontaneous model for type I diabetes, was intraperitoneally administered 100 μl of the sample for administration, twice a week between the age of 5 to 10 weeks, which was a period prior to the onset of type I diabetes. The spleen was removed from 13-week-old mice and then spleen cells were prepared and subjected to cell culture. Groups receiving test drugs were the following five groups: 1) a group receiving no drug (i.e., a group receiving physiological saline), 2) a group receiving the insulin-B-peptide-incorporated α-GalCer-liposome, 3) a group receiving the insulin-B-peptide-incorporated liposome, 4) a group receiving the α-GalCer-liposome, and 5) a group receiving the α-GalCer solution, with N=2 to 3 animals per group. After preparation of spleen cells from the animals of each of the groups, spleen cells were loaded with CFSE (carboxyfluorescein diacetate succinimidyl ester), a dye used in cell proliferation assays, and subjected to reaction, followed by washing the cells to remove the dye, in regular procedures. […] The concentrations of IL-2 and IL-10 in the culture supernatant were also measured.

IL-10 = test: Cytokine production in culture supernatant of spleen cells from drug-administered NOD mice: IL-10; conditions: spleen cells of dosed NOD mice, cultured four days
Description: as §1

[1] = system: CD4(+) Foxp3(+) cells (Treg cells); test: Insulin-B-peptide-specific proliferation of Treg cells, CFSE/FACS on spleen cells from drug-administered NOD mice (Example 3); conditions: FIG. 3B
Description: as §1

CCCCCCCCCCCCCCCCCCCCCCCCCC(=O)N[C@@H](CO[C@H]1O[C@H](CO)[C@H](O)[C@H](O)[C@H]1O)[C@H](O)[C@H](O)CCCCCCCCCCCCCC [α-GalCer solution, (2S,3S,4R)-1-O-(α-D-galactopyranosyl)-2-hexacosanoylamino-1,3,4-octadecanetriol]
Concentration of IL-2 in culture supernatant (IL-2): 0.9 pg/mL | Concentration of IL-10 in culture supernatant (IL-10): 1.3 pg/mL | ratio of the percentage of proliferated cells when no antigen was added to the percentage when the insulin B peptide was added [1]: 1.04
